# Experimental data from ChEMBL document CHEMBL1201862, “PubChem BioAssay data set” (2004).
# Activity calls are given as the source filed them.
# Key:
# Genome polyprotein = Genome polyprotein (dengue virus type 2, UniProt P29990); test: Dengue-2 NS5 methyltransferase inhibitors, primary screen, biochemical, confirmation dose response (AID 588689); format: functional
# [1] = biological target: T1, Polyadenylate-binding protein 1 (Homo sapiens, UniProt P11940); test: PABP1 MLLE–PAM2 interaction inhibitors, dose response, miRNA deadenylation inhibitor project, biochemical, fluorescence polarization, Cy5-PAM2 peptide, secondary (AID 602260); format: functional; details: read-out: IC50_Mean
# T1 sequence (P11940 whole entry): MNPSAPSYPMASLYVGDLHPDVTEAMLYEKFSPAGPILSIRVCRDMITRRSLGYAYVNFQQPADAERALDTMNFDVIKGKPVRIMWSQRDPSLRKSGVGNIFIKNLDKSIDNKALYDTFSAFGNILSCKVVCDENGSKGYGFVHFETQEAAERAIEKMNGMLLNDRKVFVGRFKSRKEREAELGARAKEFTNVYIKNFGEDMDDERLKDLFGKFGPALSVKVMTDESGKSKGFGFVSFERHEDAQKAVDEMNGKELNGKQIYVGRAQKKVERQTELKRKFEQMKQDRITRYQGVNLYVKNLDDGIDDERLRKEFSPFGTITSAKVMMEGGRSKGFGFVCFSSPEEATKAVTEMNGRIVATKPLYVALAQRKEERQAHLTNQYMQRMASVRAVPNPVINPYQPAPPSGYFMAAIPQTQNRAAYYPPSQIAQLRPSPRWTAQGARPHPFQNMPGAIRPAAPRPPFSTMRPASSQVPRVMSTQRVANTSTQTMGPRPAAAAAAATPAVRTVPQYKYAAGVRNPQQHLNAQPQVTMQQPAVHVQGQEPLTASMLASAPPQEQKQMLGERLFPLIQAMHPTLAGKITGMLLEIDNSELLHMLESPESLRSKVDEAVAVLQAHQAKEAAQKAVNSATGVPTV
# [2] = biological target: T1, Polyadenylate-binding protein 1; test: PABP1 MLLE–PAM2 binding inhibitor potency, dose response, biochemical, fluorescence polarization, FITC-PAM2 peptide (AID 602259); format: functional; details: read-out: IC50_Mean
# Cytochrome P450 2C19 = Cytochrome P450 2C19 (Homo sapiens, UniProt P33261); test: Cytochrome panel assay with activity outcomes. Panel member name: p450-cyp2c19 Compounds with AC50 equal or less than 10 uM are considered active; format: functional
# Cytochrome P450 2C19, sequence (P33261 whole entry): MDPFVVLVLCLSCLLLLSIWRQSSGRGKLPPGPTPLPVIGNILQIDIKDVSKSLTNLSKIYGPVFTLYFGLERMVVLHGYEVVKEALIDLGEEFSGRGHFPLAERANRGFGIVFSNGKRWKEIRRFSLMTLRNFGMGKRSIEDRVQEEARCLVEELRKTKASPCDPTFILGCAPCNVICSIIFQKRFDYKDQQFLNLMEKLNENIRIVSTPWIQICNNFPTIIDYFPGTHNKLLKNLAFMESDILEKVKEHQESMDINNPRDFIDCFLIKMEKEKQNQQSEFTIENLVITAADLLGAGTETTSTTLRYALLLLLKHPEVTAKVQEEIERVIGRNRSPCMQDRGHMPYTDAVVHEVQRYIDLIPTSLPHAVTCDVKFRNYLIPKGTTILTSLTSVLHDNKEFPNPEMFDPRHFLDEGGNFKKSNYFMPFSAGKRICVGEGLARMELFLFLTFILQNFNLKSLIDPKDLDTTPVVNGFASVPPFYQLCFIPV
# [3] = Luminescence Cell-Based Dose Confirmation HTS to Identify Activators of 5'UTR Stem-Loop Driven Alpha-Synuclein mRNA Translation in H4 Neuroglioblastoma Cells. [Related pubchem assays: 1829 (Project Summary), 1814 (Primary HTS)]; format: functional
# [4] = Luminescence Cell-Based Dose Response HTS to Identify Activators of Luciferase Translation or Activity in H4 […] Cells. [Related pubchem assays: 1829 (Project Summary), 1814 (Primary HTS)]; format: functional
# H4 = test: Luminescence Cell-Based Dose Response HTS to Identify Activators of 5'UTR Stem-Loop Driven Prion Protein mRNA Translation in H4 Neuroglioblastoma Cells. [Related pubchem assays: 1829 (Project Summary), 1814 (Primary HTS)]; format: functional; details: Homo sapiens
# [5] = biological target: FAD-linked sulfhydryl oxidase ALR (Homo sapiens, UniProt P55789); test: inhibitors of human ALR sulfhydryl oxidase, dose response, biochemical, H2O2 detection, luminescence, cherry-pick (AID 493248)
# FAD-linked sulfhydryl oxidase ALR, sequence (P55789 whole entry): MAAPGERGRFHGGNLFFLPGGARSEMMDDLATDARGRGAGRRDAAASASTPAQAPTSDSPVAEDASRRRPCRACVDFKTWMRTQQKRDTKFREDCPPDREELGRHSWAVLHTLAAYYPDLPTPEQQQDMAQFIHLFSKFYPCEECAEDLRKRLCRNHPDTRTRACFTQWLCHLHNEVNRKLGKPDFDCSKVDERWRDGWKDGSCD
# [6] = inhibitors of intracellular T. cruzi replication, confirmation, NIH3T3 host cells, beta-gal luminescence (AID 2044); format: functional, cell-based;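 also: intracellular parasites grown in NIH/3T3 mouse fibroblasts as host cells; luminescent beta-galactosidase reporter signal from transgenic T. cruzi replicating inside host cells; inhibitors lower the luminescence signal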
# [7] = cytotoxicity toward NIH3T3 fibroblasts, dose response, counter-screen, cell-based, ATP luminescence, mouse fibroblasts (AID 2010); format: functional;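 also: cells exposed to compound for about 90 hours before reading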
# [8] = Luminescence Cell-Based Dose Retest to Confirm Inhibitors of Cancer Stem Cells. [Related pubchem assays (depositor defined):AID2717, AID2721]; format: functional; details: Homo sapiens
# Cytochrome P450 1A2 = biological target: T2, Cytochrome P450 1A2 (Homo sapiens, UniProt P05177);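 also: PubChem cytochrome P450 panel assay, CYP1A2 panel member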
# T2 sequence (P05177 whole entry): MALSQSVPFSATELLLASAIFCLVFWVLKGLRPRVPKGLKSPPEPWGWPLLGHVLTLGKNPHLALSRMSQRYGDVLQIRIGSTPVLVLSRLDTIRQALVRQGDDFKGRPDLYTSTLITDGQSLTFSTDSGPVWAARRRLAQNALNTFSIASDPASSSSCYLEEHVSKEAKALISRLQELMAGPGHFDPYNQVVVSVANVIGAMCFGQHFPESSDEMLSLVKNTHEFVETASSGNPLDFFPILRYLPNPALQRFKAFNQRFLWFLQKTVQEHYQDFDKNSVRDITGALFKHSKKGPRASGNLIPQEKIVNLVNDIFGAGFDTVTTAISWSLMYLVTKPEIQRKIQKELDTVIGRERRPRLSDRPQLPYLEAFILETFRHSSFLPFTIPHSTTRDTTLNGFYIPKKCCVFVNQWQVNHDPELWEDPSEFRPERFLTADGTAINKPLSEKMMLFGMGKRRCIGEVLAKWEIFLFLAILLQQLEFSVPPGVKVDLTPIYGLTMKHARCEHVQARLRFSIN
# [9] = biological target: T3, Rac GTPase-activating protein 1 (Homo sapiens, UniProt Q9H0H5); test: MgcRacGAP GTPase-activating activity inhibitors, confirmation, biochemical, ADP Hunter fluorescence, primary and confirmatory (AID 624330); format: functional
# T3 sequence (Q9H0H5 whole entry): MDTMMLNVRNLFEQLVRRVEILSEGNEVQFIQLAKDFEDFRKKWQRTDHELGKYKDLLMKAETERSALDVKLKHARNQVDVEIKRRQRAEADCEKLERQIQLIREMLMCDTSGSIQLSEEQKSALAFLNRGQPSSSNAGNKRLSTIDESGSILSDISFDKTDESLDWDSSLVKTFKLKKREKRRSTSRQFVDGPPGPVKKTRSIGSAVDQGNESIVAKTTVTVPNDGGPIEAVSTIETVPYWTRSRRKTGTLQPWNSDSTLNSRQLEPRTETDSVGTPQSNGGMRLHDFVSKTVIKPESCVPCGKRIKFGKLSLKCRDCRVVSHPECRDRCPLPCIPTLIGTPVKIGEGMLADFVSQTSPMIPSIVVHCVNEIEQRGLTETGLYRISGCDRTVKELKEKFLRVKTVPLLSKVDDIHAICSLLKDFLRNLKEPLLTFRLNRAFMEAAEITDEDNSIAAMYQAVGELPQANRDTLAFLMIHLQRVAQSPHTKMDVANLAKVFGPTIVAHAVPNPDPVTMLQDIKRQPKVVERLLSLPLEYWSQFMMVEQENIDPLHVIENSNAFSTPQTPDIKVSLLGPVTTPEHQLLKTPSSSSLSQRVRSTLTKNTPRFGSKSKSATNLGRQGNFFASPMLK
# [10] = HEp-2 cell cytotoxicity, dose response, cytotoxicity control for RSV inhibitor project, HTS (AID 2410); format: functional; details: human respiratory syncytial virus
# Cytochrome P450 2C9 = Cytochrome P450 2C9 (Homo sapiens, UniProt P11712)
# Cytochrome P450 2C9, sequence (P11712 whole entry): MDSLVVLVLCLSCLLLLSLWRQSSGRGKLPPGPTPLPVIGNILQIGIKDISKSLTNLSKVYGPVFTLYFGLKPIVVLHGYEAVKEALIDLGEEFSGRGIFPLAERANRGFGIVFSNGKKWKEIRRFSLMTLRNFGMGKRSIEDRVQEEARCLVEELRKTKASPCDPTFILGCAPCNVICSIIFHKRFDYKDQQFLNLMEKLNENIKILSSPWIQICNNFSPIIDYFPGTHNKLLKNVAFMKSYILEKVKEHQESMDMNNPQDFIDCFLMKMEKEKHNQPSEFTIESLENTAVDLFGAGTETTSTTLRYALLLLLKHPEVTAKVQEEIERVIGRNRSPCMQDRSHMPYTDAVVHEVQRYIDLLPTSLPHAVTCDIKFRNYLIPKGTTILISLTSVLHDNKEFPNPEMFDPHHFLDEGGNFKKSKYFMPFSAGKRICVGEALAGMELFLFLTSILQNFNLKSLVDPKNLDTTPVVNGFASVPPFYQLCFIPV
# Cytochrome P450 3A4 = Cytochrome P450 3A4 (Homo sapiens, UniProt P08684);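 also: CYP3A4 tested as one member of a cytochrome P450 panel screen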
# Cytochrome P450 3A4, sequence (P08684 whole entry): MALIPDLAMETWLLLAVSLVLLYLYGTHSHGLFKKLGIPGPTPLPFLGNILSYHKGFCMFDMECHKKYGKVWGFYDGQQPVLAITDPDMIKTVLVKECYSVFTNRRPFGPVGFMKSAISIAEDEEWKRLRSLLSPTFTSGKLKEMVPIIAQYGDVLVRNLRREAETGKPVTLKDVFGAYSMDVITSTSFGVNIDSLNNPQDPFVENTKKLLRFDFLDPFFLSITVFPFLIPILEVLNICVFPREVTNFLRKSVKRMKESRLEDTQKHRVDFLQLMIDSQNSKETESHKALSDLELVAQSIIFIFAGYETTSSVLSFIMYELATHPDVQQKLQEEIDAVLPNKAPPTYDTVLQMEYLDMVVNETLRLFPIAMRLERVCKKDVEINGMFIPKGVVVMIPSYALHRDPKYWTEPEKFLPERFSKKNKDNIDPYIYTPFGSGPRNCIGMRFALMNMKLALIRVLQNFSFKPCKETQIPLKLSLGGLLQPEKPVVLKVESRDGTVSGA
# [11] = biological target: T4, Corticotropin-releasing factor receptor 2/Corticotropin-releasing factor-binding protein (Homo sapiens, UniProt P24387+Q13324); test: activators of CRF receptor 2 with binding protein – uHTS hits, confirmation (AID 602473); format: functional; details: read-out: EC50_Mean
# T4 sequence (Q13324 whole entry): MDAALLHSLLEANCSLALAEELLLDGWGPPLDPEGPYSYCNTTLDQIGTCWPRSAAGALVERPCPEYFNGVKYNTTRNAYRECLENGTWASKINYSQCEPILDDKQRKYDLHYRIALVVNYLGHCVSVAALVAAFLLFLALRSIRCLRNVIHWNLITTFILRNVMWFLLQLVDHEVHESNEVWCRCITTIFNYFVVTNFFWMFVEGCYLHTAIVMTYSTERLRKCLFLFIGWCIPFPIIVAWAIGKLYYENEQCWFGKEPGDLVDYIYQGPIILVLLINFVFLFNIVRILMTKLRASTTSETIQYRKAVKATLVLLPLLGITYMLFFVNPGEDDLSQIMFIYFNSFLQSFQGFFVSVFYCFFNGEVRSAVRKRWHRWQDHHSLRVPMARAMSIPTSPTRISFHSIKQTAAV
# T4 sequence (P24387 whole entry): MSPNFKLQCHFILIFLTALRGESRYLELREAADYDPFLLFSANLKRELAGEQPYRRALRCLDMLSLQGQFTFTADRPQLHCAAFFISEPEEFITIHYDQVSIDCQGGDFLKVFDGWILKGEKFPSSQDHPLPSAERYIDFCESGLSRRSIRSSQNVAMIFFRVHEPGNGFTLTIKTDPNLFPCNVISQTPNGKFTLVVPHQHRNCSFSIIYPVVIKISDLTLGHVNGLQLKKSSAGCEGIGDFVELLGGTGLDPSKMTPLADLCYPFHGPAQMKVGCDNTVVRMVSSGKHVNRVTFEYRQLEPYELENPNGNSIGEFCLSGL
# P388/ADR = test: cells; format: functional; details: Mus musculus
# SN12K1 = test: cells; format: functional; details: Homo sapiens
# P388 = test: cells; format: functional; details: Mus musculus
# Genome polyprotein, sequence (P29990 2492-3391 limits assumed): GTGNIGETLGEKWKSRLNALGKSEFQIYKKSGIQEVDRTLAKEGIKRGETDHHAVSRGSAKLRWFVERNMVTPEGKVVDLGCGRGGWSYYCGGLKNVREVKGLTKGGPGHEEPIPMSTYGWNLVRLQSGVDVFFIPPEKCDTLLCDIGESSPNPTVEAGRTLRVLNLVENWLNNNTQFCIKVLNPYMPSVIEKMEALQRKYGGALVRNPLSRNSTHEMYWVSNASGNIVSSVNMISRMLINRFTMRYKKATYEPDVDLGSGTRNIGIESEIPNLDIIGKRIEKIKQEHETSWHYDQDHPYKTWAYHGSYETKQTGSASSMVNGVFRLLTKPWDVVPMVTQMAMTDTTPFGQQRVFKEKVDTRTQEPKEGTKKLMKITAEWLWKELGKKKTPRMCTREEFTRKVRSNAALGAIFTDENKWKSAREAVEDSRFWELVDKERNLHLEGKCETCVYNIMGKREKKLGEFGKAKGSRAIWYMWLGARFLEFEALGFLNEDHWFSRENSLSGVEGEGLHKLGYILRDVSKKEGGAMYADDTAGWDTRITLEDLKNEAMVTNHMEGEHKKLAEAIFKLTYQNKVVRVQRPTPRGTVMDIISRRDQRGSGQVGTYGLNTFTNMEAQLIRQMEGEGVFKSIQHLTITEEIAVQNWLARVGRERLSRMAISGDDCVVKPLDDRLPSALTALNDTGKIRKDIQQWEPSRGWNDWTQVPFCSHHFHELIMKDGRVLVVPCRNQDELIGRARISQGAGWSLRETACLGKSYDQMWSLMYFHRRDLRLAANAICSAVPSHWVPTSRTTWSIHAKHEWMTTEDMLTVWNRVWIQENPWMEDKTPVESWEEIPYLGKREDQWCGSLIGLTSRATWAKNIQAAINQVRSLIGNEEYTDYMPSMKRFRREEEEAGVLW
smiles,measurement,setting,value
C/C(=N/Nc1ccc(C(=O)O)cc1)c1ccc(O)c(O)c1O,IC50,Genome polyprotein,> 100 µM (active)
O=C(CSC1=Nc2ccccc2C2=NC(CC(=O)NC3CCCCC3)C(=O)N12)NCc1ccco1 (stereo not given),IC50,[1],> 66 µM (inactive)
same,IC50,[2],31.2 µM (inactive)
CN(C)Cc1ccc(C(C)(C)C)cc1-c1cc(C(C)(C)C)ccc1CN(C)C,AC50,Cytochrome P450 2C19,inconclusive
COc1ccccc1CNC(=O)CSC1=NCCS1,IC50,[1],> 66 µM (inactive)
same,IC50,[2],> 66 µM (inactive)
O=C1NC(=O)C(=Cc2cccc(OCCOc3ccccc3)c2)C(=O)N1,IC50,Genome polyprotein,51.2 µM (active)
COc1ccc(C(=O)OCc2csc(C)n2)c(O)c1,EC50,[3],40.5 µM (active)
same,EC50,[4],> 120 µM (not active)
same,EC50,H4,79.1 µM (active)
CCNc1ccc(C(=O)O)cc1N,AC50,[5],1.41 µM (active)
COc1ccc(C(C2C(=O)CC(C)(C)CC2=O)C2C(=O)CC(C)(C)CC2=O)cc1COCC(F)(F)F,IC50,Genome polyprotein,27.7 µM (active)
O=C(NC1CCCCCC1)C1CCCN1S(=O)(=O)c1cccc2cccnc12 (stereo not given),AC50,[5],10.7 µM (active)
CCOc1cc(N2CCOCC2)c(OCC)cc1NC(=O)CN1CCC(Cc2ccccc2)CC1,EC50,[6],1.36 µM (active)
same,EC50,[7],> 60 µM (not active)
same,AC50,[8],2.28 µM (active)
Cc1cc(/C=C(\C#N)C(=O)NCC2CCCO2)c(C)n1-c1ccc(Cl)cc1 (stereo not given),EC50,[3],10 µM (active)
same,EC50,[4],30.1 µM (active)
same,EC50,H4,8.94 µM (active)
Cc1cc(SCNC(=O)c2ccccc2)nc(C(C)C)n1,IC50,[1],> 66 µM (inactive)
same,IC50,[2],> 66 µM (inactive)
Cc1ccccc1CSc1ccc(-c2ccc3c(c2)OCO3)nn1,AC50,[8],6.68 µM (active)
CCOC(=O)c1c(NC(=O)c2ccccc2)sc2c1CCc1ccccc1-2,IC50,[1],> 66 µM (inactive)
same,IC50,[2],> 66 µM (inactive)
COC(=O)N1CCC2(CCCN(C(c3ccccc3)c3ccccc3)C2)CC1,AC50,Cytochrome P450 2C19; read-out: AC50,25.1 µM (inconclusive)
same,AC50,Cytochrome P450 1A2,15.8 µM (inconclusive)
CCOC(=O)C1CCCN(C(=O)c2ccc(-c3ccc([N+](=O)[O-])cc3)o2)C1 (stereo not given),IC50,[1],> 66 µM (inactive)
same,IC50,[2],> 66 µM (inactive)
Cc1cc(C)nc(Nc2n[nH]c(COc3ccccc3)n2)n1,EC50,[3],4.85 µM (active)
same,EC50,[4],21.8 µM (active)
same,EC50,H4,> 120 µM (not active)
COc1ccc(NC2CCCN(C(=O)c3csc(C(C)C)n3)C2)cc1 (stereo not given),AC50,[5],0.226 µM (active)
same,IC50,[9],139 µM (active)
CC(=O)NC1=C(C#N)C(c2ccccc2)c2c(ccc3ccccc23)O1 (stereo not given),AC50,[8],0.733 µM (active)
O=C(NC(=S)Nc1ccc2c(c1)OCCO2)c1cccc(Br)c1,CC50,[10],34.8 µM (active)
same,IC50,[1],> 66 µM (inactive)
same,IC50,[2],> 66 µM (inactive)
O=C(O)[C@H]1C[C@]2(C[C@H](C(=O)O)C2)C1 (stereo not given in full),AC50,Cytochrome P450 2C19,inconclusive
Cc1nc2cc(NC(=O)CSc3nc4c(C)cccc4cc3C#N)ccc2s1,AC50,Cytochrome P450 2C19; read-out: AC50,0.251 µM (inconclusive)
same,AC50,Cytochrome P450 2C9,3.55 µM (inconclusive)
CCOP(=O)(CN(CC)CCNP(=O)(OCC)OCC)OCC,AC50,Cytochrome P450 2C19; read-out: AC50,39.8 µM (inconclusive)
same,AC50,Cytochrome P450 2C9,0.126 µM (inconclusive)
CC(=O)Nc1ccc(OCC(O)CN2CCN(c3cc(Cl)ccc3C)CC2)cc1 (stereo not given),AC50,[8],1.77 µM (active)
O=C(CCl)Nc1cccc(S(=O)(=O)NC2=NCCC2)c1,EC50,[3],45.1 µM (active)
same,EC50,[4],62.6 µM (active)
same,EC50,H4,> 120 µM (not active)
O=C(CN(c1ccc(Cl)cc1)S(=O)(=O)c1ccc(Cl)c([N+](=O)[O-])c1)NCCc1ccc(F)cc1,AC50,[8],2.15 µM (active)
CC(C)c1ccc(NC2CCCN(C(=O)C3=NN(C)C(=O)CC3)C2)cc1 (stereo not given),AC50,[5],27.7 µM (active)
NC(=O)c1ccc(N2CCCCC2)c(N2C(=O)C3CC=CCC3C2=O)c1 (stereo not given),AC50,Cytochrome P450 2C19; read-out: AC50,39.8 µM (inconclusive)
same,AC50,Cytochrome P450 3A4,25.1 µM (inconclusive)
CN(CC(=O)Nc1ccc(Cl)c(Cl)c1)CC(=O)Nc1ccc2c(c1)OCO2,AC50,[8],10.2 µM (active)
O=S(=O)(NC(=S)c1ccccc1)c1ccccc1,IC50,[1],> 66 µM (inactive)
same,IC50,[2],> 66 µM (inactive)
C[C@H]1CN([C@@H](C)CO)C(=O)Cc2cc(NC(=O)CCC(F)(F)F)ccc2O[C@H]1CN(C)Cc1ccc(-c2ccccc2)cc1,AC50,[8],4.88 µM (active)
CC(=O)Oc1oc(-c2ccccc2)nc1/C=N/c1ccccc1,IC50,Genome polyprotein,86.3 µM (active)
same,EC50,[11],22.3 µM (active)
COc1cc(/C=N/Nc2ccccc2)ccc1O,AC50,[5],0.887 µM (active)
C/C(=N/NC(=O)c1ccoc1C)C12CC3CC(CC(C3)C1)C2,EC50,[3],> 120 µM (not active)
same,EC50,[4],> 120 µM (not active)
same,EC50,H4,42.6 µM (active)
CC(=O)Nc1ccc(S(=O)(=O)N/N=C/c2ccc(C)s2)cc1,EC50,[3],5.39 µM (active)
same,EC50,[4],33.8 µM (active)
same,EC50,H4,53.5 µM (active)
CCN1CCN(/C=N/c2nc(C)cs2)CC1,EC50,[3],14.2 µM (active)
same,EC50,[4],51.9 µM (active)
same,EC50,H4,> 120 µM (not active)
COc1ccc2c(c1)[nH]c1c(=O)n(/N=C/C3C(C)C=C(C)CC3C)c(=O)[nH]c12 (stereo not given),AC50,[8],> 100 µM (inactive)
Nc1ncnc2c1nc(Cl)n2[C@@H]1O[C@@H]2COP(=O)(O)O[C@H]2[C@H]1O [TOCLADESINE],GI50,P388/ADR,4.53 µM (inactive)
same,GI50,SN12K1,7.26 µM (inactive)
same,GI50,P388,36.7 µM (inactive)
